Measurements as given in patent US20240285630A1, “Methods and compositions for improving exercise performance” (MEZZION PHARMA CO., LTD., priority 2021, published 2024).

Columns and labels:
Assay type in all cases: in vivo, human
[1] = tested on: Fontan population; test: FUEL OLE (open-label extension) trial; settings: those treated with udenafil in the FUEL trial; 26 to 78 weeks
From the text: Like most extension studies, the FUEL open label extension trial was not a placebo-controlled trial, but was instead designed to establish a safety profile over a longer duration of drug exposure—and is an independent source of data from FUEL.

[2] = tested on: adolescents with Fontan physiology; test: FUEL Trial peripheral arterial tonometry (EndoPAT), log-transformed reactive hyperemia index; settings: for Log-transformed reactive hyperemia index, difference Week 26 - baseline, mean (SD): paired data
From the text: Baseline clinical testing completed before drug initiation included a blood draw to measure brain-type natriuretic peptide (BNP) level, a cardiopulmonary exercise test (CPET) using a standardized cycle ergometer ramp protocol, a standardized echocardiogram, and an assessment of peripheral vascular function using peripheral arterial tonometry (PAT) measured by finger cuff (EndoPAT; Itamar Medical, Israel). Participants who achieved maximal effort, defined as respiratory exchange ratio (RER)≥1.10 at peak exercise during CPET, were eligible for randomization and study drug initiation. […] End-of-study clinical testing included repeat measurement of serum BNP, CPET, echocardiogram, and PAT.
Baseline clinical testing completed before drug initiation included a blood draw to measure brain-type natriuretic peptide (BNP) level, a cardiopulmonary exercise test (CPET) using a standardized cycle ergometer ramp protocol (previously described in children and adolescents with Fontan physiology, Sleeper L A, Anderson P, Hsu D T, Mahony L, McCrindle B W, Roth S J, Saul J P, Williams R V, Geva T, Colan S D, Clark B J and Pediatric Heart Network I. Design of a large cross-sectional study to facilitate future clinical trials in children with the Fontan palliation. Am Heart J. 152(3):427-433 (September 2006), a standardized echocardiogram, and an assessment of peripheral vascular function using peripheral arterial tonometry (PAT) measured by finger cuff (EndoPAT; Itamar Medical, Israel). Participants who achieved maximal effort, defined as respiratory exchange ratio (RER)>1.10 at peak exercise during CPET, were eligible for randomization and study drug initiation. […] End-of-study clinical testing included repeat measurement of serum BNP, CPET, echocardiogram, and PAT. […]

[3] = tested on: adolescents with Fontan physiology; test: FUEL Trial serum brain-type natriuretic peptide (BNP) level; settings: ANCOVA; listed as udenafil

## CCCOc1ccc(S(=O)(=O)NCCC2CCCN2C)cc1-c1nc2c(CCC)nn(C)c2c(=O)[nH]1 (centres unmarked) [Udenafil, udenafil]
[1]
  Change from baseline in peak or max VO2 over FUEL and FUEL OLE: persistence of benefit
[2]; ANCOVA
  Log-transformed reactive hyperemia index, difference LS Mean (SE), udenafil vs placebo: 0.02 (0.030)
[2]
  Log-transformed reactive hyperemia index, difference Week 26 - baseline, mean (SD): 0.06 (0.301)
[2]; listed as udenafil
  Log-transformed reactive hyperemia index, difference Week 26 - baseline, mean (SD): 0.07
[3]
  Log brain natriuretic peptide, difference LS Mean (SE), udenafil vs placebo: not different between groups
